Data reported in patent publication US20070293572A1, “Anti-Fatigue Composition” (priority 2004, published 2007).

Tested on: Sprague-Dawley male rats
Test: Treadmill Test using Young Rat (1)
Type: in vivo
Conditions: oral 100 mg/kg; for Extension of maximum running time (result in words): before vs three hours after administration; for Extension of maximum running time: maximum running time three hours after vs before administration, 7 to 10 week old rats, n=20
Method: Treadmill Test using Young Rat (1)
Using Sprague-Dawley malerats (7 to 10 week old, n=20) anti-fatigue effects brought about by reduced coenzyme Q10 alone (about 2% of oxidized coenzyme Q10 included), carnitine alone, and combination use of reduced coenzyme Q10 and carnitine were evaluated with a treadmill. In the test, rats were run at a speed of 10 m/min using a treadmill apparatus (model NK-73-4 made by Natume Seisakusho Co., Ltd.), and the speed was increased stepwise, by 5 m/min every 3 minutes, and the time when the rats became unable to run (maximum running time) was measured.
As a substance to be tested, a 0.5% sodium carboxymethylcellulose (CMC-Na) aqueous solution of reduced coenzyme Q10 (about 2% of oxidized coenzyme Q10 included) or carnitine (reduced coenzyme Q10 or carnitine/CMC-Na=10 mg/ml) was prepared and the solution was orally administered to rats at a dose of 100 mg/kg. Rats were divided into four groups of a solvent administered group, reduced coenzyme Q10 only administered group, a carnitine only administered group, and a reduced coenzyme Q10 and carnitine combined group. The maximum running time was measured before and three hours after the administration and the time extended from the maximum running time was calculated. A 0.5% CMC-Na aqueous solution was administered to the control group.

COc1c(O)c(C)c(C/C=C(\C)CC/C=C(\C)CC/C=C(\C)CC/C=C(\C)CC/C=C(\C)CC/C=C(\C)CC/C=C(\C)CC/C=C(\C)CC/C=C(\C)CCC=C(C)C)c(O)c1OC [Reduced coenzyme Q10, reduced coenzyme Q10]
Extension of maximum running time (result in words): no extension of the maximum running time
Extension of maximum running time: −22 ± 71 S

C[N+](C)(C)CC(O)CC(=O)[O-] (stereo not shown) [Carnitine, 4-trimethylamino-3-hydroxybutyric acid]
Extension of maximum running time (result in words): no extension of the maximum running time
Extension of maximum running time: −0 ± 151 S
